# Values of other authors, collected in patent EP0358033B1, “Radical polymerizable compositions and their use” (Henkel Kommanditgesellschaft auf Aktien, priority 1988, dated 1990).
# Details: free acid
row,Compound,pKS-Wert
1,CC(=O)O [Essigsäure],"~4,76"
2,O=C(O)C(Cl)Cl [Dichloressigsäure],"~1,3"
3,O=C(O)C(Cl)(Cl)Cl [Trichloressigsäure],"~0,6"
